Experimental data from patent publication US20010055753A1, “Method to regulate CD40 signaling” (National Jewish Medical and Research Center, priority 1995, published 2001).

Assays:
p42^erk2 [1] = experiment: Immunoblot with anti-ERK2 antibody (mobility shift) in Ramos cells; assay type: cell-based, human; conditions: PMA 100 ng/ml or anti-IgM 10 μg/ml, anti-CD40 5 μg/ml, 0-60 min
Method: The human Burkitt's lymphoma cell line Ramos was obtained from the American Type Culture Collection (Rockville, Md.), and cells were maintained in RPMI-1640 supplemented with 50 units/ml penicillin-streptomycin, 2 mM glutamine, and 10% FCS. Exponentially growing cells were used in all experiments.
About 1×10^6 Ramos cells were separately treated with 10 μg/ml anti-IgM F(ab′)2 goat anti-human IgM antibody (obtained from Zymed, San Francisco, Calif.) or 5 μg/ml anti-CD40 antibody (G28-5; obtained from Dr. E. A. Clark, Washington University, Seattle, Wash.) for 0, 1, 5, 15, 30 or 60 min. Ramos cells were also treated with phorbol 12-myristate 13-acetate (PMA; obtained from Sigma, St Louis, Mo.). Immunoblot analysis was performed on each of the samples using monoclonal anti-ERK2 antibody in the following method. The treated cells were lysed in 100 μl of lysis buffer (25 mM Tris-HCl, pH 7.6, 50 mM NaCl, 0.5% Na deoxycholate, 2% NP-40, 0.2% SDS, 1 mM PMSF, 50 μg/ml aprotinin, 50 μM leupeptin). Lysates were centrifuged for 10 min at 14,000 rpm in an Eppendorf microcentrifuge, 90 μl of supernatants were mixed with 30 μl of 4×Laemmli sample buffer. Samples were boiled for 5 min. Twenty μl of prepared samples were electrophoresed through a 12% SDS-PAGE gel, and proteins were transferred to nitrocellulose membranes. […]

p42^erk2 [2] = experiment: ERK kinase assay with EGFR662-681 peptide substrate, Ramos cells; assay type: cell-based, human; conditions: 100 ng/ml PMA for 20 min, control about 10,000 cpm
Method: Kinase activity was evaluated using EGFRF662-681 peptide as a substrate as described previously (Franklin et al., J. Immunol. 153:4890-4898, 1994). Following stimulation, 10^6 cells were lysed in 75 μl of lysis buffer (70 mM β-glycerophosphate, pH 7.2, […], 2 mM MgCl2, 1 mM EGTA, 0.5% Triton X-100, 5 μg/ml leupeptin, 2 μg/ml aprotinin and 1 mM DTT) and placed on ice for 15 min. Cell lysates were centrifuged at 14,000 rpm for 10 min and 20 μl of supernatant were removed and mixed with 20 μl of 2×kinase buffer (50 mM β-glycerophosphate, pH 7.2, […], 20 mM MgCl2, […], 1 mM EGTA, 400 μM EGFR662-681 peptide, 200 μM ATP and 0.225 mCi/ml[γ-^32P] ATP [ICN Biochemicals, Costa Mesa, Calif.]). After 15 min at 30° C., 10 μl of 250 mM EDTA was added, and 45 μl of the reaction mixture was spotted onto P-81 phosphocellulose paper (Whatman, Clifton, N.J.). The papers were washed four times (5 min each) in 400 ml of 75 mM phosphoric acid and then radioactivity bound to the filter paper was determined by liquid scintillation counting.

p38 MAP kinase = experiment: p38 immunoprecipitation kinase assay with ATF-2 (1-110), neutrophils; assay type: cell-based; conditions: 100 ng/ml LPS, varying time intervals
Method: Neutrophils isolated by the plasma percoll method as previously described (Haslett, C., Am. J. Pathol. 119, 101-110; 1985) were resuspended at about 25×10^6 cells/ml in KRPD containing 0.1% Human Heat Inactivated Platelet-Poor Plasma, 1 mM PMSF, 10, μg/ml leupeptin and 10 μg/ml aprotinin. About 25×10^6 PMN were preincubated for 30 minutes at 37° C., then stimulated with 100 ng/ml LPS for varying time intervals and reactions terminated by a 20 second centrifugation at 15,000 rpm. Cell pellets were lysed with 500 μl cold RIPA (50 mM Tris pH=7.2, 150 mM NaCl, 1.1% SDS, 0.1% sodium deoxycholate, 1% Triton-X-100, 10 mM sodium pyrophosphate, 25 mM M glycerophosphate, 1 mM sodium orthovanadate and 2.1 μg/ml aprotinin), and centrifuged at 15,000 for 10 minutes at 4° C. Triton soluble lysates were initial precleared with Protein A Sepharose for 30 minutes at 4° C., followed by Protein A Sepharose immunoprecipitation with 5 μl/sample polyclonal antibodies specific for p38 and 15 μl of bead suspension, for 120 minutes at 4° C. Beads were washed once in RIPA and twice in PAN (10 mM Pipes, 100 mM NaCl, pH=7.0, and 21 μg/ml aprotinin). […] Reactions were terminated with 2×Laemelli buffer and after boiling, proteins were separated by SDS-PAGE, with quantification of activity by autoradiography and phosphorimaging, and qualitative analysis of enzyme presence and phosphorylation by Western Blotting.

| Compound | ERK2 mobility shift (bands reactive with anti-ERK2 antibody) (p42^erk2 [1]) | kinase activity (32P incorporation into EGFR662-681 peptide) (p42^erk2 [2]) | p38 MAP kinase activation (p38 MAP kinase) |
| --- | --- | --- | --- |
| CCCCCCCCCCCCCC(=O)O[C@@H]1[C@@H](C)[C@@]2(O)[C@@H](C=C(CO)C[C@]3(O)C(=O)C(C)=C[C@@H]23)[C@@H]2C(C)(C)[C@]12OC(C)=O [PMA, phorbol 12-myristate 13-acetate] | a second band with immunoreactivity to anti-ERK2 antibody appeared | about 30,000 counts per minute | – |
| lipopolysaccharide | – | – | activated |
